The numbers were not newly measured in US20050019366A1, “Drug-coated stents and methods of use therefor” (priority 2002, published 2005), which cites them from elsewhere.

The series relates to restenosis after angioplasty. The following applies: probucol 500 mg; twice daily for four weeks prior and six months after angioplasty.

As to `CC(C)(Sc1cc(C(C)(C)C)c(O)c(C(C)(C)C)c1)Sc1cc(C(C)(C)C)c(O)c(C(C)(C)C)c1` [Probucol, probucol], the “reduction of the rate of restenosis after angioplasty” value is given as roughly 50%.
